Earlier results on 1 molecule are cited in US20220117866A1, “ANHYDROUS ALCOHOL-FREE SILKY FRAGRANCE FORMULATION” (AKI, Inc., priority 2020, published 2022).

The structures appear in SMILES notation. Where a name gives a salt, the structure may show the parent alone.

The series has as its system laboratory animals. Conditions: oral, dermal and inhalation routes.

In the case of `CCOC(=O)CC(O)(CC(=O)OCC)C(=O)OCC` [Triethyl Citrate, Triethyl 2-hydroxypropane-1,2,3-tricarboxylate], the acute toxicity result is “low”.
